Publication PMC12435401 (Chemistry & Biodiversity, 2025)

Molecular target: acetylcholinesterase (AChE) (Electrophorus electricus, UniProt O42275)
Assay: Ellman's assay with AChE isolated from Electrophorus electricus
Type: biochemical

Chain of acetylcholinesterase (AChE) (O42275 24-633): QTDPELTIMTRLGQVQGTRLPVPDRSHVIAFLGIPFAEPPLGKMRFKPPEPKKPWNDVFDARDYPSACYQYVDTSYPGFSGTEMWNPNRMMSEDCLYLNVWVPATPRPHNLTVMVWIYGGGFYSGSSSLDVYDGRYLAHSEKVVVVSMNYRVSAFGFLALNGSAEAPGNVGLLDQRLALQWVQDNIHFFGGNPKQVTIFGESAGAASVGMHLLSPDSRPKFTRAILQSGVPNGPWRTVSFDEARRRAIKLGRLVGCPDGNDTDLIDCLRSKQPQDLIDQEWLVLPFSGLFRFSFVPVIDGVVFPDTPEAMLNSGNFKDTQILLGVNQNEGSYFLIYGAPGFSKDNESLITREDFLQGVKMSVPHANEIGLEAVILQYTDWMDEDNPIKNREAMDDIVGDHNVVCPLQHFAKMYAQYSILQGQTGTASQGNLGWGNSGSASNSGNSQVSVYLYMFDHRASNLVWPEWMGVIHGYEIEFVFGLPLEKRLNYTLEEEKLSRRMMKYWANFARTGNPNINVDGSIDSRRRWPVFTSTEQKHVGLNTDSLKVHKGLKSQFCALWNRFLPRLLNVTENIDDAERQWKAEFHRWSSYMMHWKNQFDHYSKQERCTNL

SMILES: C[C@@H]1CC(=O)O[C@H]2C[C@@]3(C)[C@@H]4CC[C@H]5C(C)(C)C(=O)CC[C@@]56C[C@@]46CC[C@]3(C)[C@@H]12 [compound 6]
- IC50: 53.5 ± 2.53 µM
